# Key:
# [1] = molecular target: Dipeptidyl peptidase 4 (Homo sapiens, UniProt P27487); assay: Inhibition of human Dipeptidyl peptidase IV
# [2] = Half life period in aqueous solution; assay type: ADME; conditions: for half-life: aqueous solution
# Chain of Dipeptidyl peptidase 4 (P27487 whole entry): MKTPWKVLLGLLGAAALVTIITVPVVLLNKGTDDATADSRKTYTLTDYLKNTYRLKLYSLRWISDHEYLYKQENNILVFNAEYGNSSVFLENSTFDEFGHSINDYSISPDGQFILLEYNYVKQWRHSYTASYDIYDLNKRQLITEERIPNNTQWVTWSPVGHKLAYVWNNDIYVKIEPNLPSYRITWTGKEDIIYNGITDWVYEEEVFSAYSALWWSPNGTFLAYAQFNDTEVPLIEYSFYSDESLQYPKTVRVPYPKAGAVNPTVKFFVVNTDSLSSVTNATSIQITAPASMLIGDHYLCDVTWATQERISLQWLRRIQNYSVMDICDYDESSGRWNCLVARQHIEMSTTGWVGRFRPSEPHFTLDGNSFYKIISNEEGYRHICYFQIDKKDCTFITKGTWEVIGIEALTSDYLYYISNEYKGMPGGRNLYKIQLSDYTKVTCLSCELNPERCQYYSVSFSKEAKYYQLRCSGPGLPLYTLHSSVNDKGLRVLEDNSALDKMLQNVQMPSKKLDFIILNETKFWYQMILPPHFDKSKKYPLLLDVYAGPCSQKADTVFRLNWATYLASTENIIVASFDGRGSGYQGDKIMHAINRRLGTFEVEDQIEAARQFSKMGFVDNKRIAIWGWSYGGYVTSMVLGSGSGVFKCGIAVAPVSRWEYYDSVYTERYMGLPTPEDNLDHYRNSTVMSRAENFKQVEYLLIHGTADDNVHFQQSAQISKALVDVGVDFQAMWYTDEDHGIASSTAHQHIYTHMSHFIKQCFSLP
Ki [1] [nM],half-life [2] [h],T1/2 ([2]; buffer) [h],Compound
6000,> 48,,CCC(C)[C@H](N)C(=O)N1CSCCC1C#N (stereo partly drawn)
450,> 48,,CCC(C)[C@H](N)C(=O)N1COC[C@H]1C#N (stereo partly drawn)
,48,,CCC(C)[C@H](N)C(=O)N1CCC[C@H]1C#N (stereo partly drawn)

# More lines, now with the values behind:
Compound,Ki [1] [nM],half-life [2] [h],T1/2 ([2]; buffer) [h]
N#C[C@@H]1CSCN1C(=O)C(CCCCN)NC(=O)OCc1ccccc1 (stereo partly drawn),5,> 48,
N#C[C@@H]1CSCN1C(=O)C(N)C1CCCC1 (stereo partly drawn),0.5,5,
CC[C@H](C)[C@H](N)C(=O)N1C[S+]([O-])C[C@H]1C#N (stereo in doubt; 7),34,1.25,
CC[C@H](C)[C@H](N)C(=O)N1C[S+]([O-])C[C@H]1C#N (stereo in doubt; 9),440,,1.5

# — ChEMBL document CHEMBL1128930, “4-cyanothiazolidides as very potent, stable inhibitors of dipeptidyl peptidase IV” (Bioorg Med Chem Lett, 1996)
